Earlier results in patent US10414795B2, “Techniques of preparing collagen active peptides” (Technical Institute of Physics and Chemistry, Chinese …, priority 2016, dated 2019).

Tested on: human breast cancer cell line MCF-7
Conditions: read-out: IC50, dose-dependent inhibition effect

IC50 [µM]	Sequence
8.1	LPHVLTPEAGAT [Leu-Pro-His-Val-Leu-Thr-Pro-Glu-Ala-Gly-Ala-Thr, anticancer peptide (1206 Da) from tuna dark muscle byproduct hydrolysate]
8.8	PTAEGVYMVT [Pro-Thr-Ala-Glu-Gly-Val-Tyr-Met-Val-Thr, anticancer peptide (1124 Da) from tuna dark muscle byproduct hydrolysate]
